Measured values: ChEMBL document CHEMBL1143235, “1-Hydroxy-2-pyridinone-based MMP inhibitors: synthesis and biological evaluation for the treatment of ischemic stroke” (Bioorg Med Chem Lett, 2008)
Activity calls are given as the source filed them. No cut-off for these calls is given here.

What was measured:
[1] = target: T1, 72 kDa type IV collagenase (Homo sapiens, UniProt P08253); test: Inhibition of MMP2
Target sequence in this assay (P08253 whole entry): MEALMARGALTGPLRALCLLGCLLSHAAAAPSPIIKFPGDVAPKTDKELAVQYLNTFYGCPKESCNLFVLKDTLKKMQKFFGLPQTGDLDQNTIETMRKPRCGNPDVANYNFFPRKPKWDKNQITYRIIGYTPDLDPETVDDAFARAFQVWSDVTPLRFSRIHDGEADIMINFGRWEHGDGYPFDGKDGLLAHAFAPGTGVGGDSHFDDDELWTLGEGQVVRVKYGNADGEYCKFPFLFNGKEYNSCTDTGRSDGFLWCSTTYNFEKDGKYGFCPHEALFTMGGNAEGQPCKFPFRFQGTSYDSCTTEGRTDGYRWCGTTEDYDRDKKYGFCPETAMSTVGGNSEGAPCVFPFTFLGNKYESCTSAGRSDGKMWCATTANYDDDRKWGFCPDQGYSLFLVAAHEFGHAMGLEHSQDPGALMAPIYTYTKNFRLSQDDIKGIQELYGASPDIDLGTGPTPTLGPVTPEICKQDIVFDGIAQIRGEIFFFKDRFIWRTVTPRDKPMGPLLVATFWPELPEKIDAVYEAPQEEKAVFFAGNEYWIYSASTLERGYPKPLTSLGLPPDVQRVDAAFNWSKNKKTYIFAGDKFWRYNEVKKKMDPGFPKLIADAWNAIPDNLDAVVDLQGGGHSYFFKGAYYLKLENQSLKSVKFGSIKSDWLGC

[2] = target: T2, Matrix metalloproteinase-9 (Homo sapiens, UniProt P14780); test: Inhibition of MMP9
Stromelysin-1 [3] = target: T3, Stromelysin-1 (Homo sapiens, UniProt P08254); test: Inhibition of MMP3
Target sequence in this assay (P08254 whole entry): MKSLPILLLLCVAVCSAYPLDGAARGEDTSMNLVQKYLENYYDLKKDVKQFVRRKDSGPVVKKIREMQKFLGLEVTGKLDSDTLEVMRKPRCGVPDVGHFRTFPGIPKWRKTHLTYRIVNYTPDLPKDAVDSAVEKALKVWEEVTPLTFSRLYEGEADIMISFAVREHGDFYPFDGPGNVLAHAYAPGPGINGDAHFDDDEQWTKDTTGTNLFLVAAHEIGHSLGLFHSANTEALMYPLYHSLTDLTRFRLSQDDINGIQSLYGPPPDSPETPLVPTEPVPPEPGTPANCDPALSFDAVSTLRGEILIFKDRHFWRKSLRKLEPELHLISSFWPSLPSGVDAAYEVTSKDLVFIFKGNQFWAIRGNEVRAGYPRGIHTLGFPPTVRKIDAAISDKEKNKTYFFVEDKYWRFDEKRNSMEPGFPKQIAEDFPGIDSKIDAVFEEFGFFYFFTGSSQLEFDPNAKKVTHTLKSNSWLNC

Mus musculus = test: Reduction of focal ischemia-induced brain edema in C57 Black/6 mouse at 6 mg/kg, iv after 2 hrs by wet/dry method; type: functional, organism-based; parameters: dose 6 mg/kg
Rattus norvegicus = test: AUC in rat at 2 mg/kg, iv; type: ADME, organism-based, Plasma; parameters: dose 2 mg/kg, route intravenous; details: in vivo
[4] = Plasma concentration in mouse at 10 mg/kg, po after 1 hr
Collagenase 3 = Collagenase 3 (Homo sapiens, UniProt P45452); test: Inhibition of MMP13
Interstitial collagenase = target: T4, Interstitial collagenase (Homo sapiens, UniProt P03956); test: Inhibition of MMP1
T4 sequence (P03956 whole entry): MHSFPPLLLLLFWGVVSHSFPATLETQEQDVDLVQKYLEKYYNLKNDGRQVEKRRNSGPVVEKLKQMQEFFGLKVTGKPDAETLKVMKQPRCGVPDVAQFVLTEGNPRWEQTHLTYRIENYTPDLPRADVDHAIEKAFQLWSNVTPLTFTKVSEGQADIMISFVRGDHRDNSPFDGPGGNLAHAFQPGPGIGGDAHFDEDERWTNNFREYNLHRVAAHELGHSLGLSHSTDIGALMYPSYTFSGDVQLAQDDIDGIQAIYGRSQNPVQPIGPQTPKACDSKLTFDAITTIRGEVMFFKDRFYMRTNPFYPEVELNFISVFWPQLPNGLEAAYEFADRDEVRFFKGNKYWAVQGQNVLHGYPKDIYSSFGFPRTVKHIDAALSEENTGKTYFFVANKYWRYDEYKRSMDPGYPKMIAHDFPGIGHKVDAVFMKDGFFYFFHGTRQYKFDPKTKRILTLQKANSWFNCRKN

[5] = Apparent elimination half life in rat at 2 mg/kg, iv; type: ADME, organism-based; parameters: dose 2 mg/kg, route intravenous; details: in vivo
[6] = Drug level in rat at 2 mg/kg, iv; type: ADME, organism-based; parameters: dose 2 mg/kg, route intravenous; details: in vivo
[7] = Volume of distribution at steady state in rat at 2 mg/kg, iv; type: ADME, organism-based; parameters: dose 2 mg/kg, route intravenous; details: in vivo, read-out: Vdss
Stromelysin-1 [8] = target: T3, Stromelysin-1; test: Inhibition of MMP3 at 100 uM
Target sequence in this assay (P08254 100-477 limits assumed): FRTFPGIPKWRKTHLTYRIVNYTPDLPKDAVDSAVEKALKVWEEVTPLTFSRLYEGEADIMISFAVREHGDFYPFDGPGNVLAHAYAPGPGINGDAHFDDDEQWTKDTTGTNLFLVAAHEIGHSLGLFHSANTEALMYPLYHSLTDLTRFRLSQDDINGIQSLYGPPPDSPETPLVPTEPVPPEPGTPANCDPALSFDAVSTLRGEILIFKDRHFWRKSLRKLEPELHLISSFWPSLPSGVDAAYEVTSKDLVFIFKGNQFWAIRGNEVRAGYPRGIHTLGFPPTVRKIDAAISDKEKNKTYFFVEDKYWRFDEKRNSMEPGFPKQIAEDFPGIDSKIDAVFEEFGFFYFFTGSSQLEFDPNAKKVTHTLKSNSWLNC

[9] = target: T1, 72 kDa type IV collagenase; details: 100 uM
Target sequence in this assay (P08253 110-660 limits assumed): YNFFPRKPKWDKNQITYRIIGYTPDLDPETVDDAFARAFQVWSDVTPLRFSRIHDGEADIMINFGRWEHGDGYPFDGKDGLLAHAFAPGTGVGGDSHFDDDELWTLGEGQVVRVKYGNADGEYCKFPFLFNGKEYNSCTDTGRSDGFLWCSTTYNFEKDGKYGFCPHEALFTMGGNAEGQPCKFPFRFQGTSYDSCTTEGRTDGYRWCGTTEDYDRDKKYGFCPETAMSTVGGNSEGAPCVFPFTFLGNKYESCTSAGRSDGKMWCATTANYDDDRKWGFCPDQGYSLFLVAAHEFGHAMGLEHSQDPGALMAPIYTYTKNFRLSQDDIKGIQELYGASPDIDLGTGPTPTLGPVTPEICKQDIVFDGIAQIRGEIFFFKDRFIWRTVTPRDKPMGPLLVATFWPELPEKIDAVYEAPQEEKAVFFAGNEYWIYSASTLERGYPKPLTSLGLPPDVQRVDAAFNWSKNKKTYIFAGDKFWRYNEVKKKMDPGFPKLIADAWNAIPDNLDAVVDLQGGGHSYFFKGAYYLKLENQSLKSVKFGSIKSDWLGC
Description: Inhibition of MMP2 at 100 uM

[10] = target: T2, Matrix metalloproteinase-9; test: Inhibition of MMP9 at 100 uM

T2 sequence (P14780 whole entry): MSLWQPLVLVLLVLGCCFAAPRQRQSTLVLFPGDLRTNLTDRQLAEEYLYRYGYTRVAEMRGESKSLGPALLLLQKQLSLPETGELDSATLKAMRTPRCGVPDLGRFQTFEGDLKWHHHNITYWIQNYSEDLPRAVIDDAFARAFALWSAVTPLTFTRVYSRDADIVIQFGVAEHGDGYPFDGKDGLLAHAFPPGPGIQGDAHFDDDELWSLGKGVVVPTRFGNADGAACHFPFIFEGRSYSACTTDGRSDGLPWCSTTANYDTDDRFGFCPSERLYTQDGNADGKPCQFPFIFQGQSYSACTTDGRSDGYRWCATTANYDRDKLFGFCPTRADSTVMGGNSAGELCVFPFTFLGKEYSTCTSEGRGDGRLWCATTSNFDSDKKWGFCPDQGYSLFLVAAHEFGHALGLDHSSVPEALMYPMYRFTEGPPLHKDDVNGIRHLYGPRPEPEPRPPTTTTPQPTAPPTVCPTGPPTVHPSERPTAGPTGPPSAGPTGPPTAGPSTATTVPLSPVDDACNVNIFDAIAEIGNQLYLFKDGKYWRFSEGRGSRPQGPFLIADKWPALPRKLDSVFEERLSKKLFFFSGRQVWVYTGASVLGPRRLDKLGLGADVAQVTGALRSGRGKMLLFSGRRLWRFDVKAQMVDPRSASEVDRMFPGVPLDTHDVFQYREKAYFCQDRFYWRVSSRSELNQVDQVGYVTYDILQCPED

SMILES | IC50 [1] | IC50 [2] | IC50 (Stromelysin-1 [3]) | IC50 (Collagenase 3) | IC50 (Interstitial collagenase) | also measured
CCN(c1cccn(O)c1=O)S(=O)(=O)c1ccc(Oc2ccccc2)cc1 | 6.5 nM | 3.6 nM |  |  |  | 
CN(c1cccn(O)c1=O)S(=O)(=O)c1ccc(Oc2ccc(Cl)cc2)cc1 | 5 nM | 2.4 nM | 56.5 nM | 2.5 nM | > 1000 nM | Activity (Mus musculus): Active; AUC (Rattus norvegicus): 179 µg·h/mL; concentration at 1 h [4]: 34 µM; half-life [5]: 47 h; C0 [6]: 8.4 µM; Vd [7]: 1.75 L/kg
Cc1cc(=O)c(O)c(C(=O)NCc2ccc(-c3ccccc3)cc2)o1 |  |  |  |  |  | inhibition (Stromelysin-1 [8]): 34%; inhibition [9]: 34%; inhibition [10]: 34%
O=c1c(N(CCN2CCOCC2)S(=O)(=O)c2ccc(Oc3ccc(Cl)cc3)cc2)cccn1O |  |  | 62.9 nM | 4 nM | > 1000 nM | 
CN(c1cccn(O)c1=O)S(=O)(=O)c1ccc(Oc2ccc(OC(F)(F)F)cc2)cc1 |  | 1.8 nM |  |  |  | 
CN(c1cccn(O)c1=O)S(=O)(=O)c1ccc(Oc2ccccc2)cc1 | 8.3 nM | 5 nM |  |  |  | 
COc1ccc(Oc2ccc(S(=O)(=O)N(C)c3cccn(O)c3=O)cc2)cc1 |  |  | 79.1 nM | 6.8 nM | > 1000 nM | 
Cc1ccc(Oc2ccc(S(=O)(=O)N(C)c3cccn(O)c3=O)cc2)cc1 | 6.1 nM | 4.4 nM |  |  |  | 
CC(C)N(c1cccn(O)c1=O)S(=O)(=O)c1ccc(Oc2ccccc2)cc1 | 41 nM | 57.5 nM |  |  |  | 
